Source: patent publication US20050239891A1, “Use of citrulline within the framework of intestinal insufficiency” (priority 2003, published 2005)

How the values were obtained:
[1] = system: rats that have undergone an intestinal resection (short-bowel syndrome model); assay: Short-bowel syndrome model: enteral nutrition supplemented with citrulline or arginine after intestinal resection; type: in vivo, Wistar rats; details: for weight gain: resected rats (approx. 80% of small intestine), after 10 days of enteral nutrition, L-citrulline 1 g/kg/day or L-arginine 0.994 g/kg/day, AANE approx. 15 g, SHAM approx. 21 g (FIG. 1)
Excerpt: The rat was chosen as model to evaluate the effect of supplementation with citrulline within the framework of an intestinal insufficiency and in particular within the framework of the short-bowel syndrome.
24 Wistar rats weighing approximately 220-230 g were used. They were acclimatized in metabolic cages for 5 days before being operated on; during this period they had free access to water and standard laboratory food.
The intakes of L-arginine and L-citrulline correspond to those used in humans taking account of the difference in metabolic rate between the two species (rate approximately 10 times higher in the rat).
Enteral nutrition was carried out for 10 days continuously by the insertion of a gastric probe. The nitrogen intake was 2 g/kg/day and the calorie intake 290 kcal/kg/day. The food rations were rendered isonitrogenous by intake of a mixture of non-essential amino acids (Gly, Ala, Ser, His, Pro, Asn) (Sigma-Aldrich).
Three types of measurements were carried out in particular: a daily measurement of the weight of the animals, a measurement of the concentration of arginine in the plasma at the end of the experiment by ion-exchange chromatography using a JEOL device and a daily monitoring of the cumulative nitrogen balance by adding up the daily differences between the quantity of nitrogen absorbed and the quantity of nitrogen evacuated in the urine by pyroluminescence using an ANTEK apparatus.

[2] = system: elderly malnourished rats; assay: Tibialis muscle protein content (Gornall method) in malnourished aged rats after renutrition; type: in vivo, Sprague-Dawley rats; details: after renutrition phase, L-citrulline 5 g/kg/d for a week; CIT vs AL, R, AANE, p<0.05 (FIG. 4)
Experimental: (§1) Male Sprague-Dawley rats (Charles River Laboratories, L'Arbresles, France) aged 19 months were placed in individual cages, in a thermostatically controlled ambience (23°±1° C.), and subjected to a 12-hour light-darkness cycle (darkness from 08.00 hours to 20.00 hours). Their acclimatization was carried out over 2 weeks, during which their spontaneous food consumption was measured. They were fed a standard diet (A04, UAR, Villemoisson-sur-Orge, France) containing 17% proteins, 3% lipids, 59% carbohydrates and 21% water, fibres, vitamins and minerals. The average food intake during this period is 34.4 g/day.
(§2) After the acclimatization period, the rats were divided into 4 groups (cf. FIG. 5): a control group comprising rats (n=10) fed ad libitum (AL) for 12 weeks and 3 other groups subjected to a food restriction during the same period, i.e. fed with only 50% of the spontaneous ingesta (i.e. 17.2 g), with the standard diet (UAR A04). […]
Determination of the protein content was carried out on the TIB. […] The proteins content of the TIB is measured by the Gornall method. […]
(§3) The results are presented in the form of an average ±standard deviation from the mean (SDM). The results are analyzed by an ANOVA followed by an a posteriori Duncan test. […]

[3] = system: elderly malnourished rats; assay: Tibialis muscle protein synthesis rate (13C-valine incorporation) in malnourished aged rats after renutrition; type: in vivo, Sprague-Dawley rats; details: L-citrulline 5 g/kg/d for a week
Experimental: as §1, §2
The synthesis rate was determined on the TIB by the method of injecting a dose of a tracer amino acid charge. […]

[4] = Plasma amino acid concentrations in malnourished aged rats after renutrition; type: in vivo, Sprague-Dawley rats; details: male, Sprague-Dawley, rat, plasma, oral; elderly malnourished rats, diet enriched with L-citrulline 5 g/kg/d for a week; average ± SDM; p<0.05 vs AL, R and AANE
Experimental: as §1
(§4) After the acclimatization period, the rats were divided into 4 groups (cf. FIG. 5): a control group comprising rats (n=10) fed ad libitum (AL) for 12 weeks and 3 other groups subjected to a food restriction during the same period, i.e. fed with only 50% of the spontaneous ingesta (i.e. 17.2 g), with the standard diet (UAR A04).
(§5) At the end of the restriction period, the animals (n=10) in one group were […] sacrificed (group R) and the rats of the two remaining groups were fed for a week with 90% of the spontaneous ingesta (i.e. 30.9 g), either on a diet enriched with non-essential amino acids (AANE group: alanine, asparagine, glycine, serine, histidine, and proline supplied in equimolar fashion) or on a diet enriched with L-citrulline (5 g/kg/d) (citrulline group). The intakes of the two groups were isonitrogenous and isocaloric. The limitation to 90% of the spontaneous intakes makes it possible to be certain that the rats consume all of the food offered to them (Walrand et al., 2000).
(§6) At the end of the experimental period, the rats, in post-absorptive situation, were anaesthetized with isoflurane (3%) and received a subcutaneous injection of ^13C-valine at variable times before being killed by decapitation.
(§7) The blood was collected on heparin and centrifuged (3500 rpm, at +4° C. for 15 minutes). […]
as §3

[5] = system: elderly malnourished rats; assay: as above; type: in vivo, Sprague-Dawley rats; details: diet enriched with L-citrulline 5 g/kg/d for a week, average ± SDM, p<0.05 vs AL, R and AANE
Experimental: as §1, §4, §5, §6, §7, §3

[6] = system: elderly malnourished rats; assay: Tibialis muscle amino acid content in malnourished aged rats after renutrition; type: in vivo, Sprague-Dawley rats; details: diet enriched with L-citrulline 5 g/kg/d for a week, average ± SDM, p<0.05 vs AL, R and AANE
Experimental: as §1, §4, §5
The 2 Tibialis muscles (TIB) were removed in order to determine on the one hand the protein and amino acid content (right TIB) and on the other hand, the fractional (FSR) and absolute (ASR) protein synthesis rates (left TIB). […]
as §3

SMILES | weight gain [1] | concentration of arginine in the plasma ([1]; resected rats, after 10 days of supplemented enteral nutrition, compared with SHAM control (FIG. 2)) | protein concentrations in the TIB [2] | fractional protein synthesis rate (FSR) in the Tibialis muscle ([3]; compared with the other groups (FIG. 5A)) | absolute protein synthesis rate (ASR) in the Tibialis muscle ([3]; CIT vs R and AANE, p<0.05 (FIG. 5B)) | concentration at 1 week [4] [µM] | Concentration of Ornithine in the plasma [5] [µmol/L] | concentration of arginine in the plasma [5] [µmol/L] | cumulative nitrogen balance ([1]; resected rats, 10 days of supplemented enteral nutrition, compared with SHAM control (FIG. 3)) | Concentration of Arginine in the TIB [6] [nmol/g] | Concentration of Citrulline in the TIB [6] [nmol/g] | Concentration of Ornithine in the TIB [6] [nmol/g]
N=C(N)NCCC[C@H](N)C(=O)O [ARG, L-arginine, reference compound] | approximately 17 g | increase the concentration of arginine in the plasma compared with the control |  |  |  |  |  |  |  |  |  | 
NC(=O)NCCC[C@H](N)C(=O)O [CIT, L-citrulline] | approximately 21 g |  | significant increase | does not seem significant | significant increase | 2390 ± 279 | 223 ± 27 | 561 ± 55 | re-establish a nitrogen balance in the animals that have undergone resection, at the same level as that of the control group | 203 ± 35 | 616 ± 104 | 20 ± 4
